# Measured values reported in BigSolDB 2.1.
smiles,measurement,setting,value
NC12CC3CC(C1)CC(O)(C3)C2,solubility (mole fraction),"in THF, 278.15 K",0.0201
same,solubility (mole fraction),"in THF, 283.15 K",0.0213
same,solubility (mole fraction),"in THF, 288.15 K",0.0229
same,solubility (mole fraction),"in THF, 293.15 K",0.0247
same,solubility (mole fraction),"in THF, 298.15 K",0.0269
same,solubility (mole fraction),"in THF, 303.15 K",0.0294
same,solubility (mole fraction),"in THF, 308.15 K",0.0323
same,solubility (mole fraction),"in THF, 313.15 K",0.0356
same,solubility (mole fraction),"in THF, 318.15 K",0.0394
same,solubility (mole fraction),"in THF, 323.15 K",0.0439
same,solubility (mole fraction),"in THF, 328.15 K",0.049
same,solubility (mole fraction),"in ethanol, 278.15 K",0.0608
same,solubility (mole fraction),"in ethanol, 283.15 K",0.0768
same,solubility (mole fraction),"in ethanol, 288.15 K",0.0974
same,solubility (mole fraction),"in ethanol, 293.15 K",0.123
same,solubility (mole fraction),"in ethanol, 298.15 K",0.151
same,solubility (mole fraction),"in ethanol, 303.15 K",0.183
same,solubility (mole fraction),"in ethanol, 308.15 K",0.219
same,solubility (mole fraction),"in ethanol, 313.15 K",0.256
same,solubility (mole fraction),"in ethanol, 318.15 K",0.296
same,solubility (mole fraction),"in ethanol, 323.15 K",0.337
same,solubility (mole fraction),"in ethanol, 328.15 K",0.389
same,solubility (mole fraction),"in methanol, 278.15 K",0.0136
same,solubility (mole fraction),"in methanol, 283.15 K",0.0176
same,solubility (mole fraction),"in methanol, 288.15 K",0.0209
same,solubility (mole fraction),"in methanol, 293.15 K",0.0253
same,solubility (mole fraction),"in methanol, 298.15 K",0.0297
same,solubility (mole fraction),"in methanol, 303.15 K",0.0352
same,solubility (mole fraction),"in methanol, 308.15 K",0.0422
same,solubility (mole fraction),"in methanol, 313.15 K",0.0509
same,solubility (mole fraction),"in methanol, 318.15 K",0.0618
same,solubility (mole fraction),"in methanol, 323.15 K",0.0754
same,solubility (mole fraction),"in methanol, 328.15 K",0.0926
same,solubility (mole fraction),"in n-butanol, 278.15 K",0.0626
same,solubility (mole fraction),"in n-butanol, 283.15 K",0.0657
same,solubility (mole fraction),"in n-butanol, 288.15 K",0.0679
same,solubility (mole fraction),"in n-butanol, 293.15 K",0.0704
same,solubility (mole fraction),"in n-butanol, 298.15 K",0.0736
same,solubility (mole fraction),"in n-butanol, 303.15 K",0.0761
same,solubility (mole fraction),"in n-butanol, 308.15 K",0.0799
same,solubility (mole fraction),"in n-butanol, 313.15 K",0.0827
same,solubility (mole fraction),"in n-butanol, 318.15 K",0.0868
same,solubility (mole fraction),"in n-butanol, 323.15 K",0.0904
same,solubility (mole fraction),"in n-butanol, 328.15 K",0.0943
same,solubility (mole fraction),"in n-propanol, 278.15 K",0.133
same,solubility (mole fraction),"in n-propanol, 283.15 K",0.145
same,solubility (mole fraction),"in n-propanol, 288.15 K",0.157
same,solubility (mole fraction),"in n-propanol, 293.15 K",0.171
same,solubility (mole fraction),"in n-propanol, 298.15 K",0.185
same,solubility (mole fraction),"in n-propanol, 303.15 K",0.2
same,solubility (mole fraction),"in n-propanol, 308.15 K",0.216
same,solubility (mole fraction),"in n-propanol, 313.15 K",0.234
same,solubility (mole fraction),"in n-propanol, 318.15 K",0.252
same,solubility (mole fraction),"in n-propanol, 323.15 K",0.272
same,solubility (mole fraction),"in n-propanol, 328.15 K",0.293
same,solubility (mole fraction),"in water, 278.15 K",0.0125
same,solubility (mole fraction),"in water, 283.15 K",0.0146
same,solubility (mole fraction),"in water, 288.15 K",0.0173
same,solubility (mole fraction),"in water, 293.15 K",0.0207
same,solubility (mole fraction),"in water, 298.15 K",0.0233
same,solubility (mole fraction),"in water, 303.15 K",0.0266
same,solubility (mole fraction),"in water, 308.15 K",0.0306
same,solubility (mole fraction),"in water, 313.15 K",0.0354
same,solubility (mole fraction),"in water, 318.15 K",0.0413
same,solubility (mole fraction),"in water, 323.15 K",0.0486
same,solubility (mole fraction),"in water, 328.15 K",0.0575
